Measurements taken from patent US20240174643A1, “SOS1 PROTEIN DEGRADERS, PHARMACEUTICAL COMPOSITIONS THEREOF, AND THEIR THERAPEUTIC APPLICATIONS” (Bio TheryX, Inc., priority 2021, published 2024).

What was measured:
Assay type in all cases: cell-based
H358 (G12C) cells = experiment: Cell viability assay (CELLTITER-GLO), H358 cells; conditions: Homo sapiens, NCI-H358, 72 h, 3 days at 37° C., CELLTITER-GLO luminescence, read-out: Inhibition of Cancerous Cells IC50 (μM) H358 (G12C)
Description: (§1) AsPC-1, 1358, and SW48 cells were cultured in RPMI 1640 media supplemented with 10% fetal bovine serum, streptomycin, and penicillin. Lovo and SW480 cells were cultured in DMEM media supplemented with 10% fetal bovine serum, streptomycin, and penicillin. The cell lines were plated in their respective medium supplemented with 2.5% fetal bovine serum, streptomycin, and penicillin. All cell lines were plated in white walled 96-well plates at 2,000 cells/well or 384-well plates at 500 cells/well, except Lovo, which were plated at 4,000 or 1,000 cells/well, respectively. The cells were incubated in DMSO (control) or a compound for 3 days at 37° C. under 5% CO2. A CELLTITER-GLO® reagent (100 μL) was then added to each well. After a 10 min incubation with shaking, luminescence was measured using an ENVISION® multimode plate reader.

Lovo (G13D) cells = experiment: Cell viability assay (CELLTITER-GLO), Lovo cells; conditions: Homo sapiens, 72 h, 3 days at 37° C., CELLTITER-GLO luminescence, read-out: Inhibition of Cancerous Cells IC50 (μM) Lovo (G13D)
Description: as §1

SW48 (wt) cells = experiment: Cell viability assay (CELLTITER-GLO), SW48 cells; conditions: Homo sapiens, 72 h, 3 days at 37° C., CELLTITER-GLO luminescence, read-out: Inhibition of Cancerous Cells IC50 (μM) SW48 (wt)
Description: as §1

SW480 (G12V) cells = experiment: Cell viability assay (CELLTITER-GLO), SW480 cells; conditions: Homo sapiens, 72 h, 3 days at 37° C., CELLTITER-GLO luminescence, read-out: Inhibition of Cancerous Cells IC50 (μM) SW480 (G12V)
Description: as §1

AsPC-1 (G12D) cells = experiment: Cell viability assay (CELLTITER-GLO), AsPC-1 cells; conditions: Homo sapiens, ASPC1, 72 h, 3 days at 37° C., CELLTITER-GLO luminescence, read-out: Inhibition of Cancerous Cells IC50 (μM) AsPC-1 (G12D)
Description: as §1

| SMILES | IC50 (H358 (G12C) cells) | IC50 (Lovo (G13D) cells) | IC50 (SW48 (wt) cells) | IC50 (SW480 (G12V) cells) | IC50 (AsPC-1 (G12D) cells) |
| --- | --- | --- | --- | --- | --- |
| COc1cc2c(N[C@H](C)c3cccc(Br)c3)nc(C)nc2cc1OCCCCCCCN1CCN(C(=O)CNc2cccc(C3CCC(=O)NC3=O)c2)CC1 (stereo partly drawn) [Compound B1, 3-(3-((2-(4-(7-((4-(((R)-1-(3-bromophenyl)ethyl)amino)-6-methoxy-2-methylquinazolin-7-yl)oxy)heptyl)piperazin-1-yl)-2-oxoethyl)amino)phenyl)piperidine-2,6-dione] | 1.1 µM | 0.34 µM | 1.1 µM | 0.66 µM | – |
| COc1cc2c(N[C@H](C)c3cccc(Br)c3)nc(C)nc2cc1OCCCCCCCCCCCN1CCN(C(=O)CNc2cccc(C3CCC(=O)NC3=O)c2)CC1 (stereo partly drawn) [Compound B3, 3-(3-((2-(4-(11-((4-(((R)-1-(3-Bromophenyl)ethyl)amino)-6-methoxy-2-methyl-quinazolin-7-yl)oxy)undecyl)piperazin-1-yl)-2-oxoethyl)amino)phenyl)piperidine-2,6-dione] | 2.9 µM | 0.55 µM | 1.7 µM | 0.48 µM | – |
| COc1cc2c(N[C@H](C)c3cccc(Br)c3)nc(C)nc2cc1OCCCCCCCN1CCN(C(=O)CNc2ccc(C3CCC(=O)NC3=O)cc2)CC1 (stereo partly drawn) [Compound B4, 3-(4-((2-(4-(7-((4-(((R)-1-(3-bromophenyl)ethyl)amino)-6-methoxy-2-methylquinazolin-7-yl)oxy)heptyl)piperazin-1-yl)-2-oxoethyl)amino)phenyl)piperidine-2,6-dione] | 0.93 µM | 0.23 µM | 1.1 µM | 0.49 µM | – |
| COc1cc2c(N[C@H](C)c3cccc(Br)c3)nc(C)nc2cc1OCCCCCCCCCN1CCN(C(=O)CNc2ccc(C3CCC(=O)NC3=O)cc2)CC1 (stereo partly drawn) [Compound B5, 3-(4-((2-(4-(9-((4-(((R)-1-(3-Bromophenyl)ethyl)amino)-6-methoxy-2-methyl-quinazolin-7-yl)oxy)nonyl)piperazin-1-yl)-2-oxoethyl)amino)phenyl)piperidine-2,6-dione] | 2 µM | 0.19 µM | 1.2 µM | 0.45 µM | – |
| COc1cc2c(N[C@H](C)c3cccc(Br)c3)nc(C)nc2cc1OCCCCCCCCCCCN1CCN(C(=O)CNc2ccc(C3CCC(=O)NC3=O)cc2)CC1 (stereo partly drawn) [Compound B6, 3-(4-((2-(4-(11-((4-(((R)-1-(3-bromophenyl)ethyl)amino)-6-methoxy-2-methyl-quinazolin-7-yl)oxy)undecyl)piperazin-1-yl)-2-oxoethyl)amino)phenyl)piperidine-2,6-dione] | 2.1 µM | 0.48 µM | 3.7 µM | 0.3 µM | – |
| COc1cc2c(N[C@H](C)c3cccc(Br)c3)nc(C)nc2cc1OCCCCCN1CCN(C(=O)CNc2ccc(C3CCC(=O)NC3=O)cc2)CC1 (stereo partly drawn) [Compound B8, 3-(4-((2-(4-(5-((4-(((R)-1-(3-Bromophenyl)ethyl)amino)-6-methoxy-2-methyl-quinazolin-7-yl)oxy)pentyl)piperazin-1-yl)-2-oxoethyl)amino)phenyl)piperidine-2,6-dione] | 1.7 µM | 1.3 µM | 1.1 µM | 1.1 µM | 2.8 µM |

Next, values leading:

| IC50 (H358 (G12C) cells) | IC50 (Lovo (G13D) cells) | IC50 (SW48 (wt) cells) | IC50 (SW480 (G12V) cells) | IC50 (AsPC-1 (G12D) cells) | SMILES |
| --- | --- | --- | --- | --- | --- |
| 1.9 µM | 0.69 µM | 2.2 µM | 1.7 µM | 2.3 µM | COc1cc2c(N[C@H](C)c3cccc(Br)c3)nc(C)nc2cc1OCCCCCCCN1CCN(C(=O)COc2ccc(N3CCC(=O)NC3=O)cc2)CC1 [Compound C1, (R)-1-(4-(2-(4-(7-((4-((1-(3-Bromophenyl)ethyl)amino)-6-methoxy-2-methyl-quinazolin-7-yl)oxy)heptyl)piperazin-1-yl)-2-oxoethoxy)phenyl)dihydropyrimidine-2,4(1H,3H)-dione] |
| 1.4 µM | 0.55 µM | 1.6 µM | 0.66 µM | 1.6 µM | COc1cc2c(N[C@H](C)c3cccc(Br)c3)nc(C)nc2cc1OCCCCCCCCCN1CCN(C(=O)COc2ccc(N3CCC(=O)NC3=O)cc2)CC1 [Compound C2, (R)-1-(4-(2-(4-(9-((4-((1-(3-Bromophenyl)ethyl)amino)-6-methoxy-2-methyl-quinazolin-7-yl)oxy)nonyl)piperazin-1-yl)-2-oxoethoxy)phenyl)dihydropyrimidine-2,4(1H,3H)-dione] |
| 3.4 µM | 0.93 µM | 2.1 µM | 0.66 µM | 2.1 µM | COc1cc2c(N[C@H](C)c3cccc(Br)c3)nc(C)nc2cc1OCCCCCCCCCCCN1CCN(C(=O)COc2ccc(N3CCC(=O)NC3=O)cc2)CC1 [Compound C3, (R)-1-(4-(2-(4-(11-((4-((1-(3-Bromophenyl)ethyl)amino)-6-methoxy-2-methyl-quinazolin-7-yl)oxy)undecyl)piperazin-1-yl)-2-oxoethoxy)phenyl)dihydropyrimidine-2,4(1H,3H)-dione] |
| 1.2 µM | 0.94 µM | 1.3 µM | 0.73 µM | 1.4 µM | COc1cc2c(N[C@H](C)c3cccc(Br)c3)nc(C)nc2cc1OCCCCCCCN1CCN(C(=O)COc2cccc(N3CCC(=O)NC3=O)c2)CC1 [Compound C4, (R)-1-(3-(2-(4-(7-((4-((1-(3-Bromophenyl)ethyl)amino)-6-methoxy-2-methyl-quinazolin-7-yl)oxy)heptyl)piperazin-1-yl)-2-oxoethoxy)phenyl)dihydropyrimidine-2,4(1H,3H)-dione] |
| 2.9 µM | 1.1 µM | 1.8 µM | 1.4 µM | – | COc1cc2c(N[C@H](C)c3cccc(Br)c3)nc(C)nc2cc1OCCCCCCCN1CCN(C(=O)CNc2ccc3c(C4CCC(=O)NC4=O)nn(C)c3c2)CC1 (stereo partly drawn) [Compound D1, 3-(6-((2-(4-(7-((4-(((R)-1-(3-Bromophenyl)ethyl)amino)-6-methoxy-2-methyl-quinazolin-7-yl)oxy)heptyl)piperazin-1-yl)-2-oxoethyl)amino)-1-methyl-1H-indazol-3-yl)-piperidine-2,6-dione] |
| 1.7 µM | 0.55 µM | 1.2 µM | 0.97 µM | – | COc1cc2c(N[C@H](C)c3cccc(Br)c3)nc(C)nc2cc1OCCCCCCCCCN1CCN(C(=O)CNc2ccc3c(C4CCC(=O)NC4=O)nn(C)c3c2)CC1 (stereo partly drawn) [Compound D2, 3-(6-((2-(4-(9-((4-(((R)-1-(3-bromophenyl)ethyl)amino)-6-methoxy-2-methylquinazolin-7-yl)oxy)nonyl)piperazin-1-yl)-2-oxoethyl)amino)-1-methyl-1H-indazol-3-yl)piperidine-2,6-dione] |
| 1.4 µM | 0.64 µM | 0.48 µM | 0.61 µM | – | COc1cc2c(N[C@H](C)c3cccc(Br)c3)nc(C)nc2cc1OCCCCCCCCCCCN1CCN(C(=O)CNc2ccc3c(C4CCC(=O)NC4=O)nn(C)c3c2)CC1 (stereo partly drawn) [Compound D3, 3-(6-((2-(4-(11-((4-(((R)-1-(3-Bromophenyl)ethyl)amino)-6-methoxy-2-methyl-quinazolin-7-yl)oxy)undecyl)piperazin-1-yl)-2-oxoethyl)amino)-1-methyl-1H-indazol-3-yl)-piperidine-2,6-dione] |
| 1.6 µM | 0.37 µM | 0.85 µM | 0.65 µM | – | COc1cc2c(N[C@H](C)c3cccc(Br)c3)nc(C)nc2cc1OCCCCCCCN1CCN(C(=O)CNc2cccc3c(C4CCC(=O)NC4=O)nn(C)c23)CC1 (stereo partly drawn) [Compound D4, 3-(7-((2-(4-(7-((4-(((R)-1-(3-Bromophenyl)ethyl)amino)-6-methoxy-2-methyl-quinazolin-7-yl)oxy)heptyl)piperazin-1-yl)-2-oxoethyl)amino)-1-methyl-1H-indazol-3-yl)-piperidine-2,6-dione] |
| > 10 µM | 0.42 µM | 1.5 µM | 0.94 µM | – | COc1cc2c(N[C@H](C)c3cccc(Br)c3)nc(C)nc2cc1OCCCCCCCCCN1CCN(C(=O)CNc2cccc3c(C4CCC(=O)NC4=O)nn(C)c23)CC1 (stereo partly drawn) [Compound D5, 3-(7-((2-(4-(9-((4-(((R)-1-(3-Bromophenyl)ethyl)amino)-6-methoxy-2-methyl-quinazolin-7-yl)oxy)nonyl)piperazin-1-yl)-2-oxoethyl)amino)-1-methyl-1H-indazol-3-yl)-piperidine-2,6-dione] |
| 6.4 µM | 0.76 µM | 2.4 µM | 1.7 µM | – | COc1cc2c(N[C@H](C)c3cccc(Br)c3)nc(C)nc2cc1OCCCCCCCCCCCN1CCN(C(=O)CNc2cccc3c(C4CCC(=O)NC4=O)nn(C)c23)CC1 (stereo partly drawn) [Compound D6, 3-(7-((2-(4-(11-((4-(((R)-1-(3-Bromophenyl)ethyl)amino)-6-methoxy-2-methylquinazolin-7-yl)oxy)undecyl)piperazin-1-yl)-2-oxoethyl)amino)-1-methyl-1H-indazol-3-yl)piperidine-2,6-dione] |
